Experimental data as given in publication PMC11494503, “Next Generation SICLOPPS Screening for the Identification of Inhibitors of the HIF-1α/HIF-1β Protein–Protein Interaction” (ACS Chemical Biology, 2024).
Like-named read-outs stand apart in the source and are kept apart here. Peptide text beside a SMILES is read from it.

What was measured:
PAS-B domain of HIF-1α = target: T1, PAS-B domain of HIF-1α (Homo sapiens, UniProt Q16665); assay: Microscale thermophoresis (MST) binding to HIF-1α PAS-B domain
T1 construct: The HIF-1a PAS-B domain was expressed and purified as previously described; made in house
Method: We synthesized the top 20 cyclic peptides from the ranking approach. We also synthesized cyclo-CLLFVY as a control.[14] These compounds were assessed for binding to the PAS-B domain of HIF-1α by microscale thermophoresis (MST). […]

HIF-1α/HIF-1β PPI = assay: SICLOPPS CX5 library screen in HIF-1 RTHS with biopanning and NGS; type: cell-based, E. coli; conditions: after 2 rounds of biopanning
From the text: The HIF-1 RTHS links the PPI between HIF-1α-P22 and HIF-1β-434 fusion proteins to the life/death of the host E. coli via three reporter genes.[14] Interaction of HIF-1α and HIF-1β results in the formation of a chimeric P22/434 repressor that inhibits the transcription of the KanR and His3 reporter genes, which are required for cell survival in selection media (Figure S1). Disruption of the HIF-1α/HIF-1β PPI also disrupts the repressor complex, leading to transcription of the reporter genes and survival of colonies that contain cyclic peptide HIF-1 inhibitors. Thus, cells containing cyclic peptide inhibitors of the targeted PPI will survive and grow on selective media, whereas all others will not. The HIF-1 RTHS cells were transformed with the sequenced CX5 library and, after recovery, plated onto a selective medium. After incubation for 48 h at 37 °C, selection plates were scraped to collect all colonies, and the SICLOPPS plasmids were isolated. The extein coding region of these plasmids was subsequently sequenced by NGS. We observed sequence enrichment after one round of biopanning, with the three sequences (CAAAAA, CRLYVL, and CVTYVL) making up 7.8% of the entire library with over 10 000 copies each per 1 M reads (Figure 2a). The prevalence of the control sequence was reduced by 44% from 80 000 to 45 000 copies per million reads, which further indicated enrichment of cyclic peptide inhibitors of the HIF-1α/HIF-1β PPI in the RTHS. The next 47 sequences were present with over 1000 copies after round 1 which made up a further 15% of the library (Figure 2a). HIF-1 RTHS cells were transformed with the SICLOPPS plasmid library isolated from round 1 of biopanning, for a second round of selection. After incubation, all colonies were scraped, and plasmids were isolated and sequenced by NGS as before. We observed further sequence enrichment after the second round of biopanning, evident by the shift of the library population from the mostly low-prevalence sequences in both the naïve library and after one round of biopanning to mostly highly prevalent cyclic peptide sequences after round 2 of biopanning (Figure 2b). With 159 000 copies per 1 M reads, the most prevalent sequence is CRTYIL, while the next 14 sequences were all present with more than 10 000 copies per 1 M. The top 15 sequences make up over 50% of the entire library. The CA5 internal standard dropped to 0.5%, providing further evidence of enrichment of active inhibitors during biopanning.
All reagents were purchased from Fisher Scientific or Sigma Aldrich UK unless specified otherwise.
Restriction enzymes and microbiology reagents were purchased from New England Biolabs Inc., FisherScientific (UK) or Promega (UK) and were used as directed by the manufacturer. Primers and oligonucleotides were synthesised by Integrated DNA Technologies (UK). DNA sequencing was carried out by Eurofins MWG Operon (Germany).
Construction of the RTHS and SICLOPPS library was conducted as previously described.2 […]
Electrocompetent RTHS-HIF 1 cells2 were transformed with 100 ng freshly prepared SICLOPPS CX5 library, prepared as previously detailed.3 The recovery mixture was plated on 6 square plates containing M9 minimal media supplemented with 50 µg/mL ampicillin, 25 µg/mL Spectinomycin, 50 µg/mL kanamycin, 35 µg/mL chloramphenicol, 100 µM IPTG, 6.5 µM L-arabinose and 7.5 mM 3-amino triazole and incubate at 37 °C for 48 h. To ensure sufficie transformation efficiency, 10 µL transformation mixture was subjected to 10-fold serial dilutions plated on LB-agar with 35 µg/m […]
Chloramphenicol. […] All cells were […]
then harvested by resuspending the colonies in a total of 50 mL LB medium and transferring to a centrifuge tube and centrifugation for 30 min at 4000 rpm and 4°C. The cell pellet was then subjected to maxi prep (GeneJET Plasmid Maxiprep kit Thermo Scientific) and the resulting plasmid library was used for the next round of biopanning and NGS. The second round of bio panning was […]

[1] = MST, HIF-1α PAS-B, mean (n = 3) ± SEM, read-out: KD

T1 sequence (Q16665 228-298 limits assumed): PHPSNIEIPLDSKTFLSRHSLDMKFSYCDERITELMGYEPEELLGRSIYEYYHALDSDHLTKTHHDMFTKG

Compound | Kd (PAS-B domain of HIF-1α; [1]) [µM] | Enrichment after pan 2 [%] (HIF-1α/HIF-1β PPI) | Kd (PAS-B domain of HIF-1α) [µM] | fold better KD than the control peptide cyclo-CLLFVY in the same assay (PAS-B domain of HIF-1α; MST, HIF-1α) [fold]
CC(C)C[C@@H]1NC(=O)[C@H](CC(N)=O)NC(=O)[C@H](CC(C)C)NC(=O)[C@H](CC(C)C)NC(=O)[C@H](Cc2ccccc2)NC(=O)[C@H](CS)NC1=O [CFLLNL, cyclo-CFLLNL] (cyclo(CFLLNL)) | 103 ± 8 | 1.509 | – | –
CC(C)C[C@@H]1NC(=O)[C@H](CCCCN)NC(=O)[C@H](CS)NC(=O)[C@H](CC(C)C)NC(=O)[C@H](CC(C)C)NC(=O)[C@H](Cc2ccccc2)NC1=O [CKLFLL] (cyclo(CKLFLL)) | – | 0.6884 | – | –
CC(C)C[C@@H]1NC(=O)[C@H](CC(C)C)NC(=O)[C@H](Cc2ccccc2)NC(=O)[C@H](C(C)C)NC(=O)[C@H](CCCCN)NC(=O)[C@H](CS)NC1=O [CKVFLL, cyclo-CKVFLL] (cyclo(CKVFLL)) | 42 ± 12 | 3.064 | – | –
CC(C)C[C@@H]1NC(=O)[C@H](CS)NC(=O)[C@H](Cc2ccccc2)NC(=O)[C@H](CC(C)C)NC(=O)[C@H](CC(C)C)NC(=O)[C@H](CS)NC1=O [CLLFCL, cyclo-CLLFCL] (cyclo(CLCLLF)) | – | 1.071 | 0.47 ± 0.01 | > 80
CC[C@H](C)[C@@H]1NC(=O)[C@H](Cc2ccccc2)NC(=O)[C@H]([C@@H](C)CC)NC(=O)[C@H](CCCNC(=N)N)NC(=O)[C@H](CS)NC(=O)[C@H](CCSC)NC1=O [CRIFIM, cyclo-CRIFIM] (cyclo(CRIFIM)) | 26 ± 1 | 1.319 | – | –
CC[C@H](C)[C@@H]1NC(=O)[C@H](CC(C)C)NC(=O)[C@H]([C@@H](C)CC)NC(=O)[C@H](CCCNC(=N)N)NC(=O)[C@H](CS)NC(=O)[C@H](CC(C)C)NC1=O [CRILIL, cyclo-CRILIL] (cyclo(CRILIL)) | 20 ± 1 | 2.819 | – | –
CC[C@H](C)[C@@H]1NC(=O)[C@H](CC(C)C)NC(=O)[C@H](CCCNC(=N)N)NC(=O)[C@H](CS)NC(=O)[C@H](C(C)C)NC(=O)[C@H]([C@@H](C)CC)NC1=O [CRLIIV, cyclo-CRLIIV] (cyclo(CRLIIV)) | 28 ± 2 | 1.138 | – | –
CC[C@H](C)[C@@H]1NC(=O)[C@H](CC(C)C)NC(=O)[C@H](CC(C)C)NC(=O)[C@H](CCCNC(=N)N)NC(=O)[C@H](CS)NC(=O)[C@H](CC(C)C)NC1=O [CRLLIL, cyclo-CRLLIL] (cyclo(CRLLIL)) | 20 ± 1 | 1.196 | – | –
CC[C@H](C)[C@@H]1NC(=O)[C@H](Cc2ccc(O)cc2)NC(=O)[C@H](CC(C)C)NC(=O)[C@H](CCCNC(=N)N)NC(=O)[C@H](CS)NC(=O)[C@H](C(C)C)NC1=O [CRLYIV, cyclo-CRLYIV] (cyclo(CRLYIV)) | 122 ± 4 | 2.142 | – | –
CC(C)C[C@@H]1NC(=O)[C@H](CCCNC(=N)N)NC(=O)[C@H](CS)NC(=O)[C@H](CC(C)C)NC(=O)[C@H](C(C)C)NC(=O)[C@H](Cc2ccc(O)cc2)NC1=O [CRLYVL, cyclo-CRLYVL] (cyclo(CRLYVL)) | 150 ± 40 | 8.962 | – | –
CC[C@H](C)[C@@H]1NC(=O)[C@H](Cc2ccccc2)NC(=O)[C@H](CCSC)NC(=O)[C@H](CCCNC(=N)N)NC(=O)[C@H](CS)NC(=O)[C@H](CC(C)C)NC1=O [CRMFIL, cyclo-CRMFIL] (cyclo(CRMFIL)) | 20 ± 4 | 0.6746 | – | –
CSCC[C@@H]1NC(=O)[C@H](CCCNC(=N)N)NC(=O)[C@H](CS)NC(=O)[C@H](CC(C)C)NC(=O)[C@H](C(C)C)NC(=O)[C@H](Cc2ccc(O)cc2)NC1=O [CRMYVL, cyclo-CRMYVL] (cyclo(CRMYVL)) | 58 ± 17 | – | – | –
CC[C@H](C)[C@@H]1NC(=O)[C@H](CCCNC(=N)N)NC(=O)[C@H](CCCNC(=N)N)NC(=O)[C@H](CS)NC(=O)[C@H](CC(C)C)NC(=O)[C@H]([C@@H](C)CC)NC1=O [CRRIIL, cyclo-CRRIIL] (cyclo(CRRIIL)) | 8 ± 1 | 0.9912 | – | –
CC(C)C[C@@H]1NC(=O)[C@H](C(C)C)NC(=O)[C@H](Cc2ccccc2)NC(=O)[C@H](CO)NC(=O)[C@H](CCCNC(=N)N)NC(=O)[C@H](CS)NC1=O [CRSFVL] (cyclo(CRSFVL)) | – | 0.6155 | – | –
CC[C@H](C)[C@@H]1NC(=O)[C@H]([C@@H](C)O)NC(=O)[C@H](CCCNC(=N)N)NC(=O)[C@H](CS)NC(=O)[C@H](CC(C)C)NC(=O)[C@H](C(C)C)NC1=O [CRTIVL, cyclo-CRTIVL] (cyclo(CRTIVL)) | > 250 | 3.427 | – | –
CC[C@H](C)[C@@H]1NC(=O)[C@H](Cc2ccc(O)cc2)NC(=O)[C@H]([C@@H](C)O)NC(=O)[C@H](CCCNC(=N)N)NC(=O)[C@H](CS)NC(=O)[C@H](CC(C)C)NC1=O [CRTYIL, cyclo-CRTYIL] (cyclo(CRTYIL)) | 24 ± 1 | 15.78 | – | –
CC(C)C[C@@H]1NC(=O)[C@H](CC(C)C)NC(=O)[C@H](Cc2ccccc2)NC(=O)[C@H](C(C)C)NC(=O)[C@H](CCCNC(=N)N)NC(=O)[C@H](CS)NC1=O [CRVFLL] (cyclo(CRVFLL)) | – | 0.6625 | – | –
CC(C)C[C@@H]1NC(=O)[C@H](C(C)C)NC(=O)[C@H](CC(C)C)NC(=O)[C@H](C(C)C)NC(=O)[C@H](CCCNC(=N)N)NC(=O)[C@H](CS)NC1=O [CRVLVL, cyclo-CRVLVL] (cyclo(CRVLVL)) | 201 ± 16 | 0.8272 | – | –
CC[C@H](C)[C@@H]1NC(=O)[C@H](Cc2ccc(O)cc2)NC(=O)[C@H](C(C)C)NC(=O)[C@H](CCCNC(=N)N)NC(=O)[C@H](CS)NC(=O)[C@H](CC(C)C)NC1=O [CRVYIL, cyclo-CRVYIL] (cyclo(CRVYIL)) | 31 ± 6 | 1.306 | – | –
CC[C@H](C)[C@@H]1NC(=O)[C@H](CC(C)C)NC(=O)[C@H](Cc2ccc(O)cc2)NC(=O)[C@H](CCCNC(=N)N)NC(=O)[C@H](CS)NC(=O)[C@H](CC(C)C)NC1=O [CRYLIL, cyclo-CRYLIL] (cyclo(CRYLIL)) | 20 ± 2 | 0.6083 | – | –
CC(C)C[C@@H]1NC(=O)[C@H](C(C)C)NC(=O)[C@H](Cc2ccc(O)cc2)NC(=O)[C@H](Cc2ccc(O)cc2)NC(=O)[C@H](CCCNC(=N)N)NC(=O)[C@H](CS)NC1=O [CRYYVL, cyclo-CRYYVL] (cyclo(CRYYVL)) | 59 ± 7 | 0.6784 | – | –
CC(C)C[C@@H]1NC(=O)[C@H](Cc2c[nH]c3ccccc23)NC(=O)[C@H](C(C)C)NC(=O)[C@H](CO)NC(=O)[C@H](CS)NC(=O)[C@H](Cc2ccc(O)cc2)NC1=O [CSVWLY, cyclo-CSVWLY] (cyclo(CSVWLY)) | 103 ± 28 | 2.022 | – | –
cyclo-CVTYVL | – | 3.732 | – | –
